Laboratory results: US11414387B2, “Oxoacridinyl acetic acid derivatives and methods of use” (Stingthera, Inc., priority 2017, dated 2022)

molecular target: mSTING (Mus musculus, UniProt Q3TBT3); experiment: Radiometric filtration binding competition assay, mSTING; conditions: not given

| SMILES | IC50 |
| --- | --- |
| O=C(O)Cn1c2cc(-c3ccccc3)ccc2c(=O)c2ccc(Cl)c(Br)c21 [Compound 177] | 20 to 100 µM |
| O=C(O)Cn1c2cc(Nc3ccccc3)ccc2c(=O)c2ccc(Cl)c(Cl)c21 [Compound 181] | < 20 µM |

Next, values leading:

| IC50 | SMILES |
| --- | --- |
| 100 to 300 µM | CC(C)c1ccc2c(=O)c3ccc(Cl)c(C(F)(F)F)c3n(CC(=O)O)c2c1 [Compound 192] |
| < 20 µM | O=C(O)Cn1c2cc(Nc3ncccn3)ccc2c(=O)c2ccc(Cl)c(Cl)c21 [Compound 216] |

molecular target: hSTING-WT (Homo sapiens (Human), UniProt Q86WV6, H232R); experiment: Radiometric filtration binding competition assay, hSTING-WT; conditions: not given
Sequence (Q86WV6 140-379 H232R): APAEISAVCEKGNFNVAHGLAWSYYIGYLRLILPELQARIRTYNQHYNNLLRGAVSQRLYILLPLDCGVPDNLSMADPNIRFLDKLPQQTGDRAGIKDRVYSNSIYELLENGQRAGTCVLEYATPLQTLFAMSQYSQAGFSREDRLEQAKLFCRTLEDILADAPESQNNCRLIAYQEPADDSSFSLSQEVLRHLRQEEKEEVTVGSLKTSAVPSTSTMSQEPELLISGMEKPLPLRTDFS

| SMILES | IC50 |
| --- | --- |
| O=C(O)Cn1c2cc(-c3cccc(C(F)(F)F)c3)ccc2c(=O)c2ccc(Cl)c(Cl)c21 [Compound 161] | 20 to 100 µM |
| O=C(O)Cn1c2cc(-c3ccccc3)ccc2c(=O)c2ccc(Cl)c(Br)c21 [Compound 177] | 20 to 100 µM |
| Cc1ccc(-c2ccc3c(=O)c4ccc(Cl)c(Cl)c4n(CC(=O)O)c3c2)cc1Cl [Compound 164] | 20 to 100 µM |
| O=C(O)Cn1c2cc(Nc3ccccc3)ccc2c(=O)c2ccc(Cl)c(Cl)c21 [Compound 181] | < 20 µM |

Continued, values first:

| IC50 | SMILES |
| --- | --- |
| > 300 µM | C#Cc1c(Cl)ccc2c(=O)c3ccccc3n(CC(=O)O)c12 [Compound 197] |
| 20 to 100 µM | CC(C)c1ccc2c(=O)c3ccc(Cl)c(C(F)(F)F)c3n(CC(=O)O)c2c1 [Compound 192] |
| 100 to 300 µM | CC(C)c1ccc2c(=O)c3ccc(Cl)c(Br)c3n(CC(=O)NS(C)(=O)=O)c2c1 [Compound 350] |
| 20 to 100 µM | O=C(O)Cn1c2cc(Nc3ncccn3)ccc2c(=O)c2ccc(Cl)c(Cl)c21 [Compound 216] |
| 20 to 100 µM | Cc1ccc(S(=O)(=O)NC(=O)Cn2c3cc(C(C)C)ccc3c(=O)c3ccc(Cl)c(Cl)c32)cc1 [Compound 351] |

molecular target: T1, hSTING-HAQ (Homo sapiens (Human), UniProt Q86WV6, G230A/H232R/R293Q); experiment: Radiometric filtration binding competition assay, hSTING-HAQ; conditions: not given
T1 sequence (Q86WV6 140-379 G230A/H232R/R293Q): as the sequence (Q86WV6 140-379 H232R) above, with G91A, R154Q counted along it

| SMILES | IC50 |
| --- | --- |
| O=C(O)Cn1c2cc(-c3ccccc3)ccc2c(=O)c2ccc(Cl)c(Br)c21 [Compound 177] | 100 to 300 µM |
| O=C(O)Cn1c2cc(Nc3ccccc3)ccc2c(=O)c2ccc(Cl)c(Cl)c21 [Compound 181] | 20 to 100 µM |

Continued, values first:

| IC50 | SMILES |
| --- | --- |
| > 300 µM | C#Cc1c(Cl)ccc2c(=O)c3ccccc3n(CC(=O)O)c12 [Compound 197] |
| 20 to 100 µM | CC(C)c1ccc2c(=O)c3ccc(Cl)c(C(F)(F)F)c3n(CC(=O)O)c2c1 [Compound 192] |
| 20 to 100 µM | O=C(O)Cn1c2cc(Nc3ncccn3)ccc2c(=O)c2ccc(Cl)c(Cl)c21 [Compound 216] |

molecular target: mSTING-R232 (Mus musculus, UniProt Q3TBT3); experiment: STING differential scanning fluorimetry (DSF) assay, mouse STING; conditions: net shift in melting temperature

| SMILES | MOUSE DSF_6xHIS-SUMO Tm Shift (° C.) |
| --- | --- |
| O=C(O)Cn1c2cc(-c3cccc(C(F)(F)F)c3)ccc2c(=O)c2ccc(Cl)c(Cl)c21 [Compound 161] | D (“D” > 15° C.) |
| Cc1ccc(-c2ccc3c(=O)c4ccc(Cl)c(Cl)c4n(CC(=O)O)c3c2)cc1Cl [Compound 164] | D (“D” > 15° C.) |
| O=C(O)Cn1c2cc(Nc3ccccc3)ccc2c(=O)c2ccc(Cl)c(Cl)c21 [Compound 181] | D (“D” > 15° C.) |

More lines, now with the values ahead:

| MOUSE DSF_6xHIS-SUMO Tm Shift (° C.) | SMILES |
| --- | --- |
| B (“B” = 0-5° C.) | CC(C)c1ccc2c(=O)c3ccc(Cl)c(C(F)(F)F)c3n(CC(=O)O)c2c1 [Compound 192] |
| D (“D” > 15° C.) | O=C(O)Cn1c2cc(Nc3ncccn3)ccc2c(=O)c2ccc(Cl)c(Cl)c21 [Compound 216] |

molecular target: hSTING-R232 (Homo sapiens (Human), UniProt Q86WV6, H232R); experiment: STING differential scanning fluorimetry (DSF) assay, WT human STING; conditions: WT (R232) human STING aa140-379, net shift in melting temperature
Sequence (Q86WV6 140-379 H232R): as the sequence (Q86WV6 140-379 H232R) above
Description: (§1) A STING DSF assay was performed to determine protein thermostability shift in response to small molecule ligand binding. A STING thermostability shift assay based on differential scanning fluorimetry was used to measure (1) the net shift in melting temperature (ΔTm)between the apo and ligand-bound states of the STING protein and (2) the concentration of the thermal denaturation transition (EC50) as a surrogate measure of binding affinity (K). […] Protein in assay buffer was transferred to a 384 well plate and incubated with the hydrophobic fluorescent dye SYBR Orange. A temperature ramp was applied to the plate and the resulting dye fluorescence was plotted as a function of temperature. The first derivative of this function (dF/dT) was then used to extrapolate the melting temperature of the protein at various concentrations of compound and determine the thermal denaturation profile of a protein/compound complex.
(§2) • 1. Protein construct (affinity tag removal vs SUMO-fusion construct) • 2. Protein concentration • 3. Dye concentration • 4. Buffer • 5. Thermal ramp velocity • 6. DMSO tolerance • 7. Compound titration parameters • 8. […] 5 μM purified Target STING Protein • 3. 8 μM Sypro Orange Dye • 4. Buffer: 100 mM NaCl, 30 mM HEPES, pH 7.5 • 5. Thermal Ramp: 0.5° C./min • 6. <1% DMSO • 7. 11 point, 2 fold dilution, duplicate, 300 μM high concentrations • 8.

| SMILES | WT_DSF_hSWAT Tm Shift (° C.) |
| --- | --- |
| O=C(O)Cn1c2cc(-c3cccc(C(F)(F)F)c3)ccc2c(=O)c2ccc(Cl)c(Cl)c21 [Compound 161] | B (“B” = 0-2° C.) |
| O=C(O)Cn1c2cc(-c3ccccc3)ccc2c(=O)c2ccc(Cl)c(Br)c21 [Compound 177] | C (“C” = 2-7° C,) |
| Cc1ccc(-c2ccc3c(=O)c4ccc(Cl)c(Cl)c4n(CC(=O)O)c3c2)cc1Cl [Compound 164] | B (“B” = 0-2° C.) |
| O=C(O)Cn1c2cc(Nc3ccccc3)ccc2c(=O)c2ccc(Cl)c(Cl)c21 [Compound 181] | D (“D” > 7° C.) |

More lines, now with the values ahead:

| WT_DSF_hSWAT Tm Shift (° C.) | SMILES |
| --- | --- |
| C (“C” = 2-7° C,) | C#Cc1c(Cl)ccc2c(=O)c3ccccc3n(CC(=O)O)c12 [Compound 197] |
| A (“A” < 0° C.) | CC(C)c1ccc2c(=O)c3ccc(Cl)c(C(F)(F)F)c3n(CC(=O)O)c2c1 [Compound 192] |
| C (“C” = 2-7° C,) | CC(C)c1ccc2c(=O)c3ccc(Cl)c(Br)c3n(CC(=O)NS(C)(=O)=O)c2c1 [Compound 350] |
| C (“C” = 2-7° C,) | O=C(O)Cn1c2cc(Nc3ncccn3)ccc2c(=O)c2ccc(Cl)c(Cl)c21 [Compound 216] |
| A (“A” < 0° C.) | Cc1ccc(S(=O)(=O)NC(=O)Cn2c3cc(C(C)C)ccc3c(=O)c3ccc(Cl)c(Cl)c32)cc1 [Compound 351] |

molecular target: T1, hSTING-HAQ; experiment: STING differential scanning fluorimetry (DSF) assay, HAQ human STING; conditions: HAQ human STING aa140-379, net shift in melting temperature
Description: as §1, §2

| SMILES | HAQ_DSF_hSWAT Tm Shift (° C.) |
| --- | --- |
| O=C(O)Cn1c2cc(-c3cccc(C(F)(F)F)c3)ccc2c(=O)c2ccc(Cl)c(Cl)c21 [Compound 161] | B (“B” = 0-2° C.) |
| Cc1ccc(-c2ccc3c(=O)c4ccc(Cl)c(Cl)c4n(CC(=O)O)c3c2)cc1Cl [Compound 164] | B (“B” = 0-2° C.) |

Continued, values first:

| HAQ_DSF_hSWAT Tm Shift (° C.) | SMILES |
| --- | --- |
| C (“C” = 2-7° C,) | CC(C)c1ccc2c(=O)c3ccc(Cl)c(Br)c3n(CC(=O)NS(C)(=O)=O)c2c1 [Compound 350] |
| A (“A” < 0° C.) | Cc1ccc(S(=O)(=O)NC(=O)Cn2c3cc(C(C)C)ccc3c(=O)c3ccc(Cl)c(Cl)c32)cc1 [Compound 351] |

molecular target: STING protein (Homo sapiens (Human), UniProt Q86WV6, H232R); experiment: Cell based reporter assay of IRF activation (IRF-luciferase), THP1-dual-KI R232; conditions: read-out: THP1-dual-KI R232_IRF(Luciferase)_Activity Maximum measured (%)
Sequence (Q86WV6 whole entry H232R): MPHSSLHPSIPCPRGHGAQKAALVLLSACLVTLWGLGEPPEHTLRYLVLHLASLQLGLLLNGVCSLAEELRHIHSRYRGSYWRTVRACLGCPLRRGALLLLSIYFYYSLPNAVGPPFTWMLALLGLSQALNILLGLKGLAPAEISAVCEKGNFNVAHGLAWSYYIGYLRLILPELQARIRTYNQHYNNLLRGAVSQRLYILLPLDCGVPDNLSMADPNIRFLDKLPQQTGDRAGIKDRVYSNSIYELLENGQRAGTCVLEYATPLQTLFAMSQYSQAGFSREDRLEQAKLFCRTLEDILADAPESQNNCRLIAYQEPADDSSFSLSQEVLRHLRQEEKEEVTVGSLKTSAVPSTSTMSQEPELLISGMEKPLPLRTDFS

| SMILES | Emax |
| --- | --- |
| O=C(O)Cn1c2cc(-c3cccc(C(F)(F)F)c3)ccc2c(=O)c2ccc(Cl)c(Cl)c21 [Compound 161] | < 5% |
| O=C(O)Cn1c2cc(-c3ccccc3)ccc2c(=O)c2ccc(Cl)c(Br)c21 [Compound 177] | < 5% |
| O=C(O)Cn1c2cc(Nc3ccccc3)ccc2c(=O)c2ccc(Cl)c(Cl)c21 [Compound 181] | > 50% |

Now from value to molecule:

| Emax | SMILES |
| --- | --- |
| < 5% | C#Cc1c(Cl)ccc2c(=O)c3ccccc3n(CC(=O)O)c12 [Compound 197] |
| < 5% | CC(C)c1ccc2c(=O)c3ccc(Cl)c(C(F)(F)F)c3n(CC(=O)O)c2c1 [Compound 192] |
| < 5% | CC(C)c1ccc2c(=O)c3ccc(Cl)c(Br)c3n(CC(=O)NS(C)(=O)=O)c2c1 [Compound 350] |
| > 50% | O=C(O)Cn1c2cc(Nc3ncccn3)ccc2c(=O)c2ccc(Cl)c(Cl)c21 [Compound 216] |
| < 5% | Cc1ccc(S(=O)(=O)NC(=O)Cn2c3cc(C(C)C)ccc3c(=O)c3ccc(Cl)c(Cl)c32)cc1 [Compound 351] |
